# Test results as given in US7217735B1, “Methods and compositions for enhancing delivery of therapeutic agents to tissues” (priority 1999, dated 2007).
# Where two headings read alike, the source gives them in different places.
# Assays:
# [1] = tested on: Pgp-positive patient tumors; assay: Paclitaxel accumulation by Pgp status; format: in vitro ADME, human; conditions: 12,000 nM
# Experimental: The expression of Pgp was measured by immunohistochemical methods, using procedures described previously (Toth K et al. (1994) Am J Pathol 144:227–236). Briefly, tissue sections were de-waxed and rehydrated sequentially in xylene, ethanol and water. Tissue sections were boiled in a 0.1 M citrate buffer, pH 6.0, in a microwave oven, then cooled and washed in phosphate-buffered saline (PBS). The tissue sections were incubated with Dako blocking solution for 10 min and subsequently with the following antibody solutions for 2 hr: a mouse anti-human Pgp antibody (JSB-1, 1:200 dilution) and a rabbit antihuman Pgp polyclonal antibody (ab-1, 1:100 dilution). […] The incubation was carried out in a humidified chamber at room temperature. The antibodies were diluted in PBS containing 5 mg/ml bovine serum albumin. For negative controls, we used mouse IgG as the primary antibody. […] After washing with PBS, the tissue sections were covered with the linker solution, and then with peroxidase-conjugated streptavidin solution. After washing twice with PBS, tissue sections were incubated for 5 to 7 minutes with diaminobenzidine and counterstained with hematoxylin.
# The statistical significance of the differences between groups was analyzed by the two-tailed unpaired Student's t-test.
# FaDu tumor histocultures [2] = assay: Apoptotic fraction and cell density with or without apoptosis-inducing pretreatment, in vitro; format: cell-based, human; set-up: Cell density: unit not given here
# Experimental: Drug treatment was as previously described.
# Two studies were performed.
# FaDu xenograft tumors = assay: Paclitaxel uptake in tumor histocultures
# Description: FaDu cells were obtained from American Type Culture Collection (Rockville, Mass.). MCF7 cells were obtained from Dr. Kenneth Cowan at the National Cancer Institute. Cells were harvested from subconfluent cultures using trypsin and resuspended in fresh medium before plating. Cells with greater than 90% viability, as determined by trypan blue exclusion, were used for tumor implantation. Cells were centrifuged and resuspended in Matrigel (1:1 v/v). […] The tumor establishment was achieved by subcutaneously injecting 10^6 cells (0.1–0.2 ml) with a 18 gauge needle at left and right sides of the upper back. The tumor was removed when it reached a size of 0.5 to 1 g and used for experiments.
# (§1) The specimens were washed with culture medium for three times and dissected into about 1 mm^3 fragments under sterile conditions. The culture medium consisted of a 1:1 mixture of MEM/DMEM for patient tumors, MEM for FaDu xenografts, and RPMI1640 for PC3 xenografts, supplemented with 9% heat-inactivated FBS, 2 mM glutamine, 0.1 mM non-essential amino acids (only for MEM/DMEM), 90:g/ml gentamicin and 90:g/ml cefotaxime sodium. Five histoculture fragments were placed on a 1 cm^2 piece of presoaked collagen gel and incubated with 4 ml culture medium in 6-well plates. After 2 to 4 days, tumor histocultures were used to study the kinetics of drug penetration.
# (§2) At predetermined times, 100 μl of medium was taken from each well and the histocultures were removed from the plates. The histocultures were blot-dried on a filter paper and their weights were measured. One hundred 1 of medium or tumor samples were mixed with 0.5 ml of Solvable tissue/gel solubilizer, incubated at 50° C. in an oven overnight, and analyzed for total radioactivity using liquid scintillation counting. […] Drug concentration in tissue was calculated as (drug amount) divided by (tissue weight) and was expressed in molar terms.
# For the FaDu xenograft tumor, specimens from individual animals were sufficiently large that each tumor was used for studying uptake and efflux at all four drug concentrations.
# [3] = tested on: FaDu xenograft tumor histocultures; assay: Apoptotic cell fraction in paclitaxel-treated histocultures (Example 1); format: cell-based, human
# Experimental: The fractions of stromal tissue and tumor cells in each histoculture were measured using image analysis. Briefly, stromal and tumor cells of a 100× magnification field were outlined with the computer mouse. The sizes of each of these regions were determined via image analysis by counting the number of pixels in the region. […] Apoptotic cells were determined based on morphological changes in tumor cells such as chromatin condensation and margination, disappearance of nucleoli, formation of membrane blebs, apoptotic bodies and/or cell shrinkage (Kerr J F R et al. (1994) Cancer 73:2013). […] For each tumor piece, 50 to 100 images were processed, and the fractions of the tumor represented by tumor cells, stromal tissue, and interstitial space were calculated.
# [4] = tested on: FaDu xenograft tumor histocultures; assay: [3H]paclitaxel penetration by autoradiography; format: in vitro ADME, human; conditions: 120 nM
# Experimental: The autoradiographic method was as described previously (Lesser G J et al. (1995) Cancer Chemother Pharmacol 37:173–178). […] Tissue samples were mounted on cryostat chucks with embedding matrix (O.C.T. Compound, Miles Inc., Ellchart, Ind.) and cut into 10 μm thick sections in a cryostat at −20° C. […] The slides containing the tissue sections were placed against tritium-sensitive film (Ultrofilm) in an X-ray cassette and exposed for one to two weeks at room temperature. The films were developed for 3–5 minutes at room temperature (D-19 Developer), placed in a stop bath for 30 seconds, immersed in fixer for 3 minutes and exposed to running room temperature water for 15 minutes. The films were then rinsed in Photo-flo 200 and allowed to air-dry. Separately, the tissue section slides were stained with hematoxylin and eosin.
# The threshold for the autoradiographic image was adjusted to minimize the background signal.
# FaDu tumor histocultures [5] = conditions: for time at which even distribution in tumor was attained: with pretreatment
# Description: The histocultures were transferred to a collagen gel presoaked with drug-containing medium for at least 8 hr. The latter was to ascertain that the drug concentration in the medium inside the collagen gel was at equilibrium with the surrounding medium, in order to eliminate the delay in drug transport from medium through the collage gel. Drug treatment was terminated by transferring histocultures to a collagen gel presoaked with drug-free medium. Histocultures were transferred using a pair of hooked forceps and care was exercised to avoid squeezing or pinching.
# The total drug concentration in tumor histocultures was measured as described in Example 1. […] Thirty to 35 tumor histocultures were used for each time point.
# One schedule used 50% of the total C×T to induce apoptosis, whereas the other schedule used continuous treatment. […] The fraction of apoptotic cells and cell density were determined by counting the number of total and apoptotic tumor cells in 400× microscopic fields (3 fields per tumor).
# [6] = tested on: patient head and neck tumors; assay: Paclitaxel uptake in tumor histocultures
# Experimental: as §1
# This study was performed using head and neck tumors from human patients and the human pharynx FaDu xenograft tumors maintained in athymic mice.
# as §2
# The study design of experiments using patient tumors was dictated by the size of the specimens. On some occasions, specimens from an individual patient were only sufficient to study drug uptake and efflux at one or more but not all drug concentrations. A total of 7 head and neck tumors and 3 ovarian tumors were used. For the FaDu xenograft tumor, specimens from individual animals were sufficiently large that each tumor was used for studying uptake and efflux at all four drug concentrations.
# The statistical significance of the differences among patient (head and neck and ovarian, n=6) and FaDu (n=3) tumors, at equal initial medium concentrations, were analyzed by the two-tailed unpaired Student's t-test.
# [7] = 10 nM [3H]paclitaxel, 4 hr, with pretreatment by 1:M nonradiolabeled paclitaxel
# [8] = 10 nM [3H]paclitaxel, 4 hr, without pretreatment
# [9] = 10 nM [3H]paclitaxel, 16 hr, with pretreatment by 1:M nonradiolabeled paclitaxel
# [10] = 10 nM [3H]paclitaxel, 16 hr, without pretreatment
# [11] = 10 nM [3H]paclitaxel, 24 hr, with pretreatment by 1:M nonradiolabeled paclitaxel
# [12] = 10 nM [3H]paclitaxel, 24 hr, without pretreatment
# [13] = 10 nM [3H]paclitaxel, 32 hr, with pretreatment by 1:M nonradiolabeled paclitaxel
# [14] = 10 nM [3H]paclitaxel, 32 hr, without pretreatment
# [15] = 10 nM [3H]paclitaxel, 48 hr, with pretreatment by 1:M nonradiolabeled paclitaxel
# [16] = 10 nM [3H]paclitaxel, 48 hr, without pretreatment
# [17] = 10 nM [3H]paclitaxel, 72 hr, with pretreatment by 1:M nonradiolabeled paclitaxel
# [18] = 10 nM [3H]paclitaxel, 72 hr, without pretreatment
# [19] = 50 nM [3H]paclitaxel, 4 hr, with pretreatment by 1:M nonradiolabeled paclitaxel
# [20] = 50 nM [3H]paclitaxel, 4 hr, without pretreatment
# [21] = 50 nM [3H]paclitaxel, 16 hr, with pretreatment by 1:M nonradiolabeled paclitaxel
# [22] = 50 nM [3H]paclitaxel, 16 hr, without pretreatment
# [23] = 50 nM [3H]paclitaxel, 24 hr, with pretreatment by 1:M nonradiolabeled paclitaxel
# [24] = 50 nM [3H]paclitaxel, 24 hr, without pretreatment
# [25] = 50 nM [3H]paclitaxel, 32 hr, with pretreatment by 1:M nonradiolabeled paclitaxel
# [26] = 50 nM [3H]paclitaxel, 32 hr, without pretreatment
# [27] = 50 nM [3H]paclitaxel, 48 hr, with pretreatment by 1:M nonradiolabeled paclitaxel
# [28] = 50 nM [3H]paclitaxel, 48 hr, without pretreatment
# [29] = 50 nM [3H]paclitaxel, 72 hr, with pretreatment by 1:M nonradiolabeled paclitaxel
# [30] = 50 nM [3H]paclitaxel, 72 hr, without pretreatment
# [31] = 50 nM x 24 hr, 24 hr after initiation of treatment
# [32] = 50 nM x 24 hr, 36 hr after initiation of treatment
# [33] = 600 nM x 1 hr, 23 hr later 50 nM x 12 hr, 24 hr after initiation of treatment
# [34] = 600 nM x 1 hr, 23 hr later 50 nM x 12 hr, 36 hr after initiation of treatment
compound,measurement,setting,value
CC(=O)O[C@H]1C(=O)[C@@]2(C)[C@H]([C@H](OC(=O)c3ccccc3)[C@]3(O)C[C@H](OC(=O)[C@H](O)[C@@H](NC(=O)c4ccccc4)c4ccccc4)C(C)=C1C3(C)C)[C@]1(OC(C)=O)CO[C@@H]1C[C@@H]2O [paclitaxel],lower accumulation in Pgp-positive vs Pgp-negative patient tumors (average difference),[1],< 25%
same,Apoptotic fraction,FaDu tumor histocultures [2]; [7],23.6 ± 1.3%
same,Cell density,FaDu tumor histocultures [2]; [7],64.2 ± 3.5
same,Apoptotic fraction,FaDu tumor histocultures [2]; [8],3.93 ± 0.87%
same,Cell density,FaDu tumor histocultures [2]; [8],86.3 ± 4.0
same,Apoptotic fraction,FaDu tumor histocultures [2]; [9],24.6 ± 4.8%
same,Cell density,FaDu tumor histocultures [2]; [9],64.3 ± 1.8
same,Apoptotic fraction,FaDu tumor histocultures [2]; [10],4.98 ± 0.84%
same,Cell density,FaDu tumor histocultures [2]; [10],80.2 ± 2.9
same,Apoptotic fraction,FaDu tumor histocultures [2]; [11],26.6 ± 2.4%
same,Cell density,FaDu tumor histocultures [2]; [11],64.0 ± 5.2
same,Apoptotic fraction,FaDu tumor histocultures [2]; [12],7.32 ± 1.80%
same,Cell density,FaDu tumor histocultures [2]; [12],81.6 ± 2.5
same,Apoptotic fraction,FaDu tumor histocultures [2]; [13],30.1 ± 3.4%
same,Cell density,FaDu tumor histocultures [2]; [13],60.1 ± 4.2
same,Apoptotic fraction,FaDu tumor histocultures [2]; [14],6.64 ± 1.07%
same,Cell density,FaDu tumor histocultures [2]; [14],79.9 ± 2.1
same,Apoptotic fraction,FaDu tumor histocultures [2]; [15],34.9 ± 5.2%
same,Cell density,FaDu tumor histocultures [2]; [15],62.3 ± 3.1
same,Apoptotic fraction,FaDu tumor histocultures [2]; [16],9.18 ± 1.31%
same,Cell density,FaDu tumor histocultures [2]; [16],77.8 ± 3.0
same,Apoptotic fraction,FaDu tumor histocultures [2]; [17],31.0 ± 4.4%
same,Cell density,FaDu tumor histocultures [2]; [17],61.0 ± 2.2
same,Apoptotic fraction,FaDu tumor histocultures [2]; [18],11.0 ± 1.7%
same,Cell density,FaDu tumor histocultures [2]; [18],82.6 ± 2.2
same,Apoptotic fraction,FaDu tumor histocultures [2]; [19],26.3 ± 5.4%
same,Cell density,FaDu tumor histocultures [2]; [19],63.1 ± 4.5
same,Apoptotic fraction,FaDu tumor histocultures [2]; [20],2.74 ± 0.12%
same,Cell density,FaDu tumor histocultures [2]; [20],85.8 ± 3.6
same,Apoptotic fraction,FaDu tumor histocultures [2]; [21],36.0 ± 3.9%
same,Cell density,FaDu tumor histocultures [2]; [21],60.8 ± 4.9
same,Apoptotic fraction,FaDu tumor histocultures [2]; [22],7.97 ± 2.03%
same,Cell density,FaDu tumor histocultures [2]; [22],83.9 ± 3.3
same,Apoptotic fraction,FaDu tumor histocultures [2]; [23],36.4 ± 2.0%
same,Cell density,FaDu tumor histocultures [2]; [23],58.3 ± 1.1
same,Apoptotic fraction,FaDu tumor histocultures [2]; [24],17.0 ± 2.8%
same,Cell density,FaDu tumor histocultures [2]; [24],77.0 ± 3.8
same,Apoptotic fraction,FaDu tumor histocultures [2]; [25],37.4 ± 4.5%
same,Cell density,FaDu tumor histocultures [2]; [25],53.2 ± 2.1
same,Apoptotic fraction,FaDu tumor histocultures [2]; [26],19.1 ± 2.5%
same,Cell density,FaDu tumor histocultures [2]; [26],71.2 ± 4.6
same,Apoptotic fraction,FaDu tumor histocultures [2]; [27],39.8 ± 3.1%
same,Cell density,FaDu tumor histocultures [2]; [27],53.6 ± 2.4
same,Apoptotic fraction,FaDu tumor histocultures [2]; [28],28.3 ± 2.9%
same,Cell density,FaDu tumor histocultures [2]; [28],68.8 ± 2.5
same,Apoptotic fraction,FaDu tumor histocultures [2]; [29],37.9 ± 3.4%
same,Cell density,FaDu tumor histocultures [2]; [29],47.8 ± 3.2
same,Apoptotic fraction,FaDu tumor histocultures [2]; [30],27.2 ± 3.0%
same,Cell density,FaDu tumor histocultures [2]; [30],61.1 ± 2.8
same,Apoptotic fraction,FaDu tumor histocultures [2]; [31],15.2%
same,Cell density,FaDu tumor histocultures [2]; [31],71.3 ± 2.9
same,Apoptotic fraction,FaDu tumor histocultures [2]; [32],17.0%
same,Cell density,FaDu tumor histocultures [2]; [32],72.6 ± 3.2
same,Apoptotic fraction,FaDu tumor histocultures [2]; [33],20.3 ± 4.3%
same,Cell density,FaDu tumor histocultures [2]; [33],60.9 ± 1.3
same,Apoptotic fraction,FaDu tumor histocultures [2]; [34],25.4 ± 3.4%
same,Cell density,FaDu tumor histocultures [2]; [34],62.4 ± 4.2
same,apoptosis caused by pretreatment,"FaDu tumor histocultures [2]; 1,000 nM nonradiolabeled paclitaxel for 3 hr, at 24 hr, preliminary study",~30%
same,Mass balance,FaDu xenograft tumors; initial Cmedium 12 nM,92.5 ± 5.1%
same,Steady state Cmedium,FaDu xenograft tumors; initial Cmedium 12 nM,9.09 ± 0.27 nM
same,Mass balance,FaDu xenograft tumors; initial Cmedium 120 nM,86.5 ± 2.8%
same,Steady state Cmedium,FaDu xenograft tumors; initial Cmedium 120 nM,89.7 ± 13.3 nM
same,Mass balance,"FaDu xenograft tumors; initial Cmedium 1,200 nM",89.4 ± 5.7%
same,Steady state Cmedium,"FaDu xenograft tumors; initial Cmedium 1,200 nM",887 ± 131 nM
same,Mass balance,"FaDu xenograft tumors; initial Cmedium 12,000 nM",90.2 ± 5.4%
same,Steady state Cmedium,"FaDu xenograft tumors; initial Cmedium 12,000 nM","8,910 ± 267 nM"
same,fraction of apoptotic cells,"[3]; 12 nM, remained relatively constant",≥ 7%
same,fraction of apoptotic cells,"[3]; 120 nM, at 24 hours",~30%
same,fraction of apoptotic cells,"[3]; 120 nM, at 72 hours",~50%
same,cell layers penetrated,[4]; during the first 24 hours,15 cell layers
same,cell layers penetrated,[4]; during the second 24 hours,> 80 cell layers
same,time at which even distribution in tumor was attained,FaDu tumor histocultures [5]; 10 nM,72 h
same,Paclitaxel in tumor,FaDu tumor histocultures [5]; [31],3.11 ± 0.31 :M
same,Paclitaxel in tumor,FaDu tumor histocultures [5]; [32],2.01 ± 0.32 :M
same,time at which even distribution in tumor was attained,FaDu tumor histocultures [5]; 50 nM,24 h
same,time of even distribution throughout the tumor,"FaDu tumor histocultures [5]; 50 nM, without pretreatment",≤ 72 h
same,Paclitaxel in tumor,FaDu tumor histocultures [5]; [33],2.68 ± 0.31 :M
same,Paclitaxel in tumor,FaDu tumor histocultures [5]; [34],4.33 ± 0.29 :M
same,paclitaxel penetration,"FaDu tumor histocultures [5]; control group, 50 nM continuously for 24 hr, during the next 12 hr",less than 20 cell layers
same,higher drug accumulation in pretreatment group vs control group,"FaDu tumor histocultures [5]; end of drug treatment (36 hr vs 24 hr), equal CxT 1,200 nM·hr",40%
same,time of even drug distribution throughout histocultures,"FaDu tumor histocultures [5]; pretreatment group, 600 nM 1 hr, 23 hr drug-free, 50 nM 12 hr",36 h
same,Mass balance,[6]; initial Cmedium 12 nM,91.2 ± 3.5%
same,Steady state Cmedium,[6]; initial Cmedium 12 nM,10.9 ± 1.0 nM
same,Mass balance,[6]; initial Cmedium 120 nM,83.8 ± 7.6%
same,Steady state Cmedium,[6]; initial Cmedium 120 nM,83.0 ± 0.7 nM
same,Steady state Ctumor,[6]; initial Cmedium 120 nM,5.77 ± 1.52 :M
same,Mass balance,"[6]; initial Cmedium 1,200 nM",87.5 ± 6.5%
same,Steady state Cmedium,"[6]; initial Cmedium 1,200 nM",925 ± 25 nM
same,Steady state Ctumor,"[6]; initial Cmedium 1,200 nM",22.0 ± 6.2 :M
same,Mass balance,"[6]; initial Cmedium 12,000 nM",91.5 ± 3.5%
same,Steady state Cmedium,"[6]; initial Cmedium 12,000 nM","9,870 ± 59 nM"
same,Steady state Ctumor,"[6]; initial Cmedium 12,000 nM",341 ± 125 :M
